Experimental data: ChEMBL document CHEMBL1201862, “PubChem BioAssay data set” (2004)
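Briefly, cells in 96-well plates were exposed to five compound concentrations for 48 h, and endpoints were estimated by linear interpolation. Here, GI50 denotes the concentration required for 50% inhibition of growth.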 The source made the active and inactive calls. Cut-off read from the data, not from the text of the source: active = GI50 up to about 1.1 µM and inactive = higher.

How the values were obtained:
Assay in all cases: DTP human tumour cell line panel, 48 h
[1] = system: 786-0
[2] = system: A498
[3] = system: A549
[4] = system: ACHN
[5] = system: BT-549
[6] = system: CCRF-CEM
[7] = system: COLO 205
[8] = system: DU-145
[9] = system: EKVX
[10] = system: HCC 2998
[11] = system: HCT-116
[12] = system: HCT-15
[13] = system: HL-60
[14] = system: HOP-62
[15] = system: HOP-92
[16] = system: HT-29
[17] = system: Hs-578T
[18] = system: IGROV-1
[19] = system: K562
[20] = system: KM12
[21] = system: LOX IMVI
[22] = system: M14
[23] = system: MCF7
[24] = system: MDA-MB-231
[25] = system: MDA-MB-435
[26] = system: MDA-N
[27] = system: MOLT-4
[28] = system: Malme-3M
[29] = system: NCI-H226
[30] = system: NCI-H23
[31] = system: NCI-H460
[32] = system: NCI-H522
[33] = system: NCI/ADR-RES
[34] = system: OVCAR-3
[35] = system: OVCAR-4
[36] = system: OVCAR-5
[37] = system: OVCAR-8
[38] = system: PC-3
[39] = system: RPMI-8226
[40] = system: RXF 393
[41] = system: SF-268
[42] = system: SF-295
[43] = system: SF-539
[44] = system: SK-MEL-28
[45] = system: SK-MEL-2
[46] = system: SK-MEL-5
[47] = system: SK-OV-3
[48] = system: SN12C
[49] = system: SNB-19
[50] = system: SNB-75
[51] = system: SR
[52] = system: SW-620
[53] = system: T47D
[54] = system: TK-10
[55] = system: U-251
[56] = system: UACC-257
[57] = system: UACC-62
[58] = system: UO-31
[59] = system: CAKI-1

SMILES: COc1ccc2nc3cc([N+](=O)[O-])ccc3c(NNc3ccccc3)c2c1
- GI50 [1]: 18.4 µM (inactive)
- GI50 [2]: 0.0681 µM (active)
- GI50 [3]: 13.9 µM (inactive)
- GI50 [4]: 30 µM (inactive)
- GI50 [5]: 28.5 µM (inactive)
- GI50 [6]: 23.2 µM (inactive)
- GI50 [7]: 10.8 µM (inactive)
- GI50 [8]: 42.1 µM (inactive)
- GI50 [9]: 16 µM (inactive)
- GI50 [10]: 23.2 µM (inactive)
- GI50 [11]: 11.4 µM (inactive)
- GI50 [12]: 22.6 µM
- GI50 [13]: 18.7 µM (inactive)
- GI50 [14]: 27.7 µM (inactive)
- GI50 [15]: 19.8 µM (inactive)
- GI50 [16]: 13.8 µM (inactive)
- GI50 [17]: 26.5 µM (inactive)
- GI50 [18]: 2.93 µM (inactive)
- GI50 [19]: 5.69 µM (inactive)
- GI50 [20]: 12.4 µM (inactive)
- GI50 [21]: 29 µM (inactive)
- GI50 [22]: 27.5 µM (inactive)
- GI50 [23]: 10.8 µM (inactive)
- GI50 [24]: 20.6 µM (inactive)
- GI50 [25]: 29.6 µM (inactive)
- GI50 [26]: 29.5 µM (inactive)
- GI50 [27]: 21 µM (inactive)
- GI50 [28]: 20.3 µM (inactive)
- GI50 [29]: 0.596 µM (active)
- GI50 [30]: 34.7 µM (inactive)
- GI50 [31]: 11.7 µM (inactive)
- GI50 [32]: 20.7 µM (inactive)
- GI50 [33]: 31 µM (inactive)
- GI50 [34]: 30 µM (inactive)
- GI50 [35]: 60.7 µM (inactive)
- GI50 [36]: 2.07 µM (inactive)
- GI50 [37]: 39.3 µM (inactive)
- GI50 [38]: 35.4 µM (inactive)
- GI50 [39]: 17.5 µM (inactive)
- GI50 [40]: 47.9 µM (inactive)
- GI50 [41]: 30.8 µM (inactive)
- GI50 [42]: 35.5 µM (inactive)
- GI50 [43]: 26.8 µM (inactive)
- GI50 [44]: 77.6 µM (inactive)
- GI50 [45]: 27.4 µM (inactive)
- GI50 [46]: 16.7 µM (inactive)
- GI50 [47]: > 73.6 µM (inactive)
- GI50 [48]: 30.2 µM (inactive)
- GI50 [49]: 56.4 µM (inactive)
- GI50 [50]: 49.1 µM (inactive)
- GI50 [51]: 14.8 µM (inactive)
- GI50 [52]: 17.3 µM (inactive)
- GI50 [53]: 26.9 µM (inactive)
- GI50 [54]: 2.58 µM (inactive)
- GI50 [55]: 18.7 µM (inactive)
- GI50 [56]: 1.19 µM (inactive)
- GI50 [57]: 2 µM (inactive)
- GI50 [58]: 31.4 µM (inactive)

SMILES: CC1=NN(c2cccc(S(=O)(=O)O)c2)C2(C1)C(Cl)C(=O)N2c1nc2ccccc2s1 (stereo unspecified)
- GI50 [1]: 5.56 µM (inactive)
- GI50 [2]: 18.2 µM (inactive)
- GI50 [3]: 8.61 µM (inactive)
- GI50 [4]: 6.81 µM (inactive)
- GI50 [5]: 5.5 µM (inactive)
- GI50 [59]: 2.9 µM (inactive)
- GI50 [6]: 1.26 µM (inactive)
- GI50 [7]: 8.3 µM (inactive)
- GI50 [8]: 11.3 µM (inactive)
- GI50 [9]: 8.53 µM (inactive)
- GI50 [10]: 15.1 µM (inactive)
- GI50 [11]: 6.47 µM (inactive)
- GI50 [12]: 4.04 µM
- GI50 [13]: 2.61 µM (inactive)
- GI50 [14]: 5.75 µM (inactive)
- GI50 [15]: 2.57 µM (inactive)
- GI50 [16]: 7.98 µM (inactive)
- GI50 [17]: 11.7 µM (inactive)
- GI50 [18]: 1.66 µM (inactive)
- GI50 [19]: 3.86 µM (inactive)
- GI50 [20]: 9.23 µM (inactive)
- GI50 [21]: 1.25 µM (inactive)
- GI50 [22]: 8.65 µM (inactive)
- GI50 [23]: 8.89 µM (inactive)
- GI50 [24]: 8.73 µM (inactive)
- GI50 [25]: 6.85 µM (inactive)
- GI50 [26]: 13.1 µM (inactive)
- GI50 [27]: 2.88 µM (inactive)
- GI50 [28]: 5.83 µM (inactive)
- GI50 [29]: 5.82 µM (inactive)
- GI50 [30]: 4.61 µM (inactive)
- GI50 [31]: 9.62 µM (inactive)
- GI50 [32]: 1.81 µM (inactive)
- GI50 [33]: 4.99 µM (inactive)
- GI50 [34]: 2.94 µM (inactive)
- GI50 [35]: 4.74 µM (inactive)
- GI50 [36]: 13.4 µM (inactive)
- GI50 [37]: 5.65 µM (inactive)
- GI50 [38]: 10.5 µM (inactive)
- GI50 [39]: 1.83 µM (inactive)
- GI50 [40]: 8.28 µM (inactive)
- GI50 [41]: 7.87 µM (inactive)
- GI50 [42]: 13.8 µM (inactive)
- GI50 [44]: 15.7 µM (inactive)
- GI50 [45]: 4 µM (inactive)
- GI50 [46]: 6.17 µM (inactive)
- GI50 [47]: 11.2 µM (inactive)
- GI50 [48]: 5.37 µM (inactive)
- GI50 [49]: 11.2 µM (inactive)
- GI50 [50]: 4.05 µM (inactive)
- GI50 [51]: 7.08 µM (inactive)
- GI50 [52]: 4.54 µM (inactive)
- GI50 [53]: 9.35 µM (inactive)
- GI50 [54]: 14.2 µM (inactive)
- GI50 [55]: 5.85 µM (inactive)
- GI50 [56]: 13.6 µM (inactive)
- GI50 [57]: 6.81 µM (inactive)
- GI50 [58]: 3.55 µM (inactive)
